In the supplement of paper PMC10307832:

Legend:
Experiment in all cases: relative viability (nuclei count vs DMSO), 5 days (fraction); higher = more cells survive
[1] = system: HCC-15
How it was run: (§1)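 After 5 days of treatment, lung cancer cells in 1536-well plates were fixed and stained in a single step (final 0.05% Triton X-100, 1% formaldehyde, 1 ug/ml Hoechst) and their nuclei counted on 4× images. Treatment had been applied by pin tool the day after seeding as one drug alone or as a fixed anchor-drug dose with five library-drug doses (not always all listed) in √10 steps. Relative viability is the nuclei count of treated wells divided by that of vehicle wells, and values are medians of duplicate plates.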

[2] = system: NCI-H727
How it was run: as §1

[3] = system: NCI-H322M
How it was run: as §1

[4] = system: NCI-H838
How it was run: as §1

[5] = system: NCI-H460
How it was run: as §1

[6] = system: BEN
How it was run: as §1

[7] = system: NCI-H1651
How it was run: as §1

[8] = system: NCI-H358
How it was run: as §1

[9] = system: EMC-BAC-2
How it was run: as §1

[10] = system: LK-2
How it was run: as §1

[11] = system: NCI-H522
How it was run: as §1

[12] = system: SW 900
How it was run: as §1

[13] = system: NCI-H2023
How it was run: as §1

[14] = system: PC-3 [JPC-3]
How it was run: as §1

[15] = system: ABC-1
How it was run: as §1

[16] = system: COR-L 105
How it was run: as §1

[17] = system: EKVX
How it was run: as §1

[18] = system: LU99A
How it was run: as §1

[19] = system: HCC-44
How it was run: as §1

[20] = system: NCI-H520
How it was run: as §1

[21] = system: 201T
How it was run: as §1

CCNC(=O)c1noc(-c2cc(C(C)C)c(O)cc2O)c1-c1ccc(CN2CCOCC2)cc1 [Luminespib] + Nc1ncn([C@H]2C[C@H](O)[C@@H](CO)O2)c(=O)n1 [Decitabine] (partner 2 µM)
relative viability ([1]; first compound 0.002 µM): 0.695
relative viability ([1]; first compound 0.006325 µM): 0.565
relative viability ([1]; first compound 0.02 µM): 0.73
relative viability ([1]; first compound 0.06325 µM): 0.144
relative viability ([1]; first compound 0.2 µM): 0.14
relative viability ([2]; first compound 0.002 µM): 0.893
relative viability ([2]; first compound 0.006325 µM): 0.857
relative viability ([2]; first compound 0.02 µM): 0.652
relative viability ([2]; first compound 0.06325 µM): 0.461
relative viability ([2]; first compound 0.2 µM): 0.368
relative viability ([3]; first compound 0.002 µM): 0.681
relative viability ([3]; first compound 0.006325 µM): 0.624
relative viability ([3]; first compound 0.02 µM): 0.711
relative viability ([3]; first compound 0.06325 µM): 0.509
relative viability ([3]; first compound 0.2 µM): 0.499
relative viability ([4]; first compound 0.002 µM): 0.495
relative viability ([4]; first compound 0.006325 µM): 0.491
relative viability ([4]; first compound 0.02 µM): 0.422
relative viability ([4]; first compound 0.06325 µM): 0.176
relative viability ([4]; first compound 0.2 µM): 0.193
relative viability ([5]; first compound 0.002 µM): 0.473
relative viability ([5]; first compound 0.006325 µM): 0.432
relative viability ([5]; first compound 0.02 µM): 0.0674
relative viability ([5]; first compound 0.06325 µM): 0.0264
relative viability ([5]; first compound 0.2 µM): 0.0329
relative viability ([6]; first compound 0.002 µM): 0.84
relative viability ([6]; first compound 0.006325 µM): 0.644
relative viability ([6]; first compound 0.02 µM): 0.458
relative viability ([6]; first compound 0.06325 µM): 0.306
relative viability ([6]; first compound 0.2 µM): 0.294
relative viability ([7]; first compound 0.002 µM): 0.612
relative viability ([7]; first compound 0.006325 µM): 0.553
relative viability ([7]; first compound 0.02 µM): 0.594
relative viability ([7]; first compound 0.06325 µM): 0.469
relative viability ([7]; first compound 0.2 µM): 0.226
relative viability ([8]; first compound 0.002 µM): 0.217
relative viability ([8]; first compound 0.006325 µM): 0.217
relative viability ([8]; first compound 0.02 µM): 0.178
relative viability ([8]; first compound 0.06325 µM): 0.0688
relative viability ([8]; first compound 0.2 µM): 0.0584
relative viability ([9]; first compound 0.002 µM): 0.995
relative viability ([9]; first compound 0.02 µM): 0.783
relative viability ([9]; first compound 0.06325 µM): 0.564
relative viability ([9]; first compound 0.2 µM): 0.237
relative viability ([10]; first compound 0.002 µM): 0.32
relative viability ([10]; first compound 0.006325 µM): 0.268
relative viability ([10]; first compound 0.02 µM): 0.192
relative viability ([10]; first compound 0.06325 µM): 0.0898
relative viability ([10]; first compound 0.2 µM): 0.0914
relative viability ([11]; first compound 0.002 µM): 0.626
relative viability ([11]; first compound 0.006325 µM): 0.631
relative viability ([11]; first compound 0.02 µM): 0.593
relative viability ([11]; first compound 0.06325 µM): 0.6
relative viability ([11]; first compound 0.2 µM): 0.451
relative viability ([12]; first compound 0.002 µM): 0.478
relative viability ([12]; first compound 0.006325 µM): 0.472
relative viability ([12]; first compound 0.02 µM): 0.417
relative viability ([12]; first compound 0.06325 µM): 0.156
relative viability ([12]; first compound 0.2 µM): 0.159
relative viability ([13]; first compound 0.002 µM): 0.242
relative viability ([13]; first compound 0.006325 µM): 0.218
relative viability ([13]; first compound 0.02 µM): 0.136
relative viability ([13]; first compound 0.06325 µM): 0.0602
relative viability ([13]; first compound 0.2 µM): 0.0539
relative viability ([14]; first compound 0.002 µM): 0.888
relative viability ([14]; first compound 0.006325 µM): 0.842
relative viability ([14]; first compound 0.02 µM): 0.705
relative viability ([14]; first compound 0.06325 µM): 0.397
relative viability ([14]; first compound 0.2 µM): 0.506
relative viability ([15]; first compound 0.002 µM): 1.19
relative viability ([15]; first compound 0.006325 µM): 1.18
relative viability ([15]; first compound 0.02 µM): 1.16
relative viability ([15]; first compound 0.06325 µM): 0.755
relative viability ([15]; first compound 0.2 µM): 0.344
relative viability ([16]; first compound 0.002 µM): 0.674
relative viability ([16]; first compound 0.006325 µM): 0.654
relative viability ([16]; first compound 0.02 µM): 0.567
relative viability ([16]; first compound 0.06325 µM): 0.234
relative viability ([16]; first compound 0.2 µM): 0.334
relative viability ([17]; first compound 0.002 µM): 0.38
relative viability ([17]; first compound 0.006325 µM): 0.31
relative viability ([17]; first compound 0.02 µM): 0.273
relative viability ([17]; first compound 0.06325 µM): 0.253
relative viability ([17]; first compound 0.2 µM): 0.173
relative viability ([18]; first compound 0.002 µM): 0.953
relative viability ([18]; first compound 0.006325 µM): 0.781
relative viability ([18]; first compound 0.02 µM): 0.5
relative viability ([18]; first compound 0.06325 µM): 0.855
relative viability ([18]; first compound 0.2 µM): 0.879
relative viability ([19]; first compound 0.002 µM): 0.969
relative viability ([19]; first compound 0.006325 µM): 0.953
relative viability ([19]; first compound 0.02 µM): 0.959
relative viability ([19]; first compound 0.06325 µM): 0.954
relative viability ([19]; first compound 0.2 µM): 0.863
relative viability ([20]; first compound 0.002 µM): 0.533
relative viability ([20]; first compound 0.006325 µM): 0.506
relative viability ([20]; first compound 0.02 µM): 0.317
relative viability ([20]; first compound 0.06325 µM): 0.167
relative viability ([20]; first compound 0.2 µM): 0.152
relative viability ([21]; first compound 0.002 µM): 0.832
relative viability ([21]; first compound 0.006325 µM): 0.867
relative viability ([21]; first compound 0.02 µM): 0.844
relative viability ([21]; first compound 0.06325 µM): 0.811
relative viability ([21]; first compound 0.2 µM): 0.827
